Measured values from ChEMBL document CHEMBL1201862, “PubChem BioAssay data set” (2004).
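Results reflect a 48-hour exposure of cells in 96-well plates to compound at five concentrations. GI50 marks 50% less growth.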 The source made the active and inactive calls. Cut-off read from the data, not from the text of the source: active = GI50 up to about 1.1 µM and inactive = higher.

Assays:
Assay in all cases: growth of human tumour cells (NCI), 48 h
786-0 = test system: 786-0
A549 = test system: A549
COLO 205 = test system: COLO 205
HOP-62 = test system: HOP-62
LOX IMVI = test system: LOX IMVI
MCF7 = test system: MCF7
MDA-MB-435 = test system: MDA-MB-435
MDA-N = test system: MDA-N
Malme-3M = test system: Malme-3M
NCI-H23 = test system: NCI-H23
NCI-H522 = test system: NCI-H522
OVCAR-4 = test system: OVCAR-4
OVCAR-8 = test system: OVCAR-8
RPMI-8226 = test system: RPMI-8226
SK-MEL-28 = test system: SK-MEL-28
SR = test system: SR
U-251 = test system: U-251
UO-31 = test system: UO-31
DU-145 = test system: DU-145

For `COc1cc(C2SCC(=O)N2c2ccc(Cl)cc2)cc(OC)c1OC` (centres undefined), the GI50 (786-0) was > 58.5 µM (inactive), the GI50 (A549) was > 100 µM (inactive) and the GI50 (COLO 205) was 1.94 µM (inactive). The GI50 (HOP-62) was 21.1 µM (inactive), the GI50 (LOX IMVI) was 1.03 µM (active) and the GI50 (MCF7) was 5.22 µM (inactive). For the same molecule, the GI50 (MDA-MB-435) was 0.635 µM (active), the GI50 (MDA-N) was 3.05 µM (inactive) and the GI50 (Malme-3M) was > 100 µM (inactive). The GI50 (NCI-H23) was 26.2 µM (inactive), the GI50 (NCI-H522) was 31.8 µM (inactive) and the GI50 (OVCAR-4) was 5.81 µM (inactive). The GI50 (OVCAR-8) was > 45.4 µM (inactive), the GI50 (RPMI-8226) was 8.93 µM (inactive) and the GI50 (SK-MEL-28) was > 72.9 µM (inactive). The GI50 (SR) was 1.12 µM (active), the GI50 (U-251) was > 79.4 µM (inactive) and the GI50 (UO-31) was 1.19 µM (inactive).
`CCOC(=O)c1ccc(N2C(=S)N(C(=O)c3ccccc3)C(=N/c3ccccc3)/C2=N\c2ccccc2)cc1` was tested, and the GI50 (786-0) was 42.2 µM (inactive), the GI50 (A549) was 52.8 µM (inactive) and the GI50 (DU-145) was 92.9 µM (inactive). The GI50 (HOP-62) was 19.7 µM (inactive), the GI50 (MCF7) was 55.3 µM (inactive) and the GI50 (MDA-MB-435) was 51.5 µM (inactive). The GI50 (MDA-N) was 26.5 µM (inactive), the GI50 (Malme-3M) was 53.5 µM (inactive) and the GI50 (NCI-H23) was 56.1 µM (inactive). The GI50 (NCI-H522) was 51.2 µM (inactive), the GI50 (OVCAR-8) was 24.7 µM (inactive) and the GI50 (RPMI-8226) was > 100 µM (inactive). For the same molecule, the GI50 (SK-MEL-28) was > 100 µM (inactive), the GI50 (SR) was > 100 µM (inactive) and the GI50 (U-251) was 25.5 µM (inactive). The GI50 (UO-31) was 56.9 µM (inactive).
In the case of `CC(=O)O/C=C1/C[C@H]2[C@@H]3CCC4CC(C(C)=O)CC[C@]4(C)[C@H]3CC[C@]2(C)C1=O` (some centres undefined), the GI50 (786-0) is reported as 68.2 µM (inactive), the GI50 (COLO 205) is reported as > 10 µM (inactive) and the GI50 (DU-145) is reported as > 100 µM (inactive). The GI50 (HOP-62) was > 100 µM (inactive), the GI50 (LOX IMVI) was 33.3 µM (inactive) and the GI50 (MCF7) was 38 µM (inactive). For the same molecule, the GI50 (MDA-MB-435) was > 100 µM (inactive), the GI50 (MDA-N) was 88.1 µM (inactive) and the GI50 (Malme-3M) was > 100 µM (inactive). For the same molecule, the GI50 (NCI-H23) was 81.7 µM (inactive), the GI50 (NCI-H522) was > 100 µM (inactive) and the GI50 (OVCAR-4) was > 100 µM (inactive). For the same molecule, the GI50 (SK-MEL-28) was > 100 µM (inactive), the GI50 (SR) was 44.1 µM (inactive) and the GI50 (U-251) was 40.6 µM (inactive). The GI50 (UO-31) was > 100 µM (inactive).
With `CS(=O)(=O)Sc1ccc(Cl)cc1` the GI50 (786-0) was 6.32 µM (inactive), the GI50 (A549) was 3.75 µM (inactive) and the GI50 (COLO 205) was 3.52 µM (inactive). For the same molecule, the GI50 (HOP-62) was 2.83 µM (inactive), the GI50 (LOX IMVI) was 3.36 µM (inactive) and the GI50 (Malme-3M) was 11.6 µM (inactive). The GI50 (NCI-H23) was 13.8 µM (inactive), the GI50 (NCI-H522) was 3.24 µM (inactive) and the GI50 (OVCAR-4) was 13.7 µM (inactive). The GI50 (OVCAR-8) was 7.87 µM (inactive), the GI50 (RPMI-8226) was 10.9 µM (inactive) and the GI50 (SK-MEL-28) was 11.5 µM (inactive). For the same molecule, the GI50 (SR) was 3.59 µM (inactive), the GI50 (U-251) was 2.84 µM (inactive) and the GI50 (UO-31) was 3.29 µM (inactive).
With `Cc1ccc(S(=O)(=O)N[C@@H](Cc2ccccc2)C(=O)CCl)cc1` [TPCK] the GI50 (786-0) was 13.9 µM (inactive), the GI50 (A549) was 15.7 µM (inactive) and the GI50 (COLO 205) was 17.5 µM (inactive). The GI50 (DU-145) was 17.7 µM (inactive), the GI50 (HOP-62) was 17.3 µM (inactive) and the GI50 (LOX IMVI) was 7.08 µM (inactive). The GI50 (MCF7) was 10.5 µM (inactive), the GI50 (MDA-MB-435) was 14.3 µM (inactive) and the GI50 (MDA-N) was 14.3 µM (inactive). For the same molecule, the GI50 (Malme-3M) was 14.6 µM (inactive), the GI50 (NCI-H23) was 13.6 µM (inactive) and the GI50 (NCI-H522) was 9.68 µM (inactive). For the same molecule, the GI50 (OVCAR-4) was 4.93 µM (inactive), the GI50 (OVCAR-8) was 13.7 µM (inactive) and the GI50 (SK-MEL-28) was 18.6 µM (inactive). For the same molecule, the GI50 (U-251) was 16.2 µM (inactive) and the GI50 (UO-31) was 14.1 µM (inactive).
For `COc1ccc(/C=C/c2sc3ccccc3[n+]2CCCCI)cc1OC`, the GI50 (786-0) was > 10 µM (inactive), the GI50 (A549) was > 10 µM (inactive) and the GI50 (DU-145) was > 10 µM (inactive). The GI50 (HOP-62) was > 10 µM (inactive), the GI50 (LOX IMVI) was > 10 µM (inactive) and the GI50 (MCF7) was > 10 µM (inactive). The GI50 (MDA-MB-435) was 4.57 µM (inactive), the GI50 (MDA-N) was 5.97 µM (inactive) and the GI50 (Malme-3M) was 3.01 µM (inactive). The GI50 (NCI-H23) was > 10 µM (inactive), the GI50 (NCI-H522) was 8.87 µM (inactive) and the GI50 (OVCAR-4) was > 10 µM (inactive). For the same molecule, the GI50 (OVCAR-8) was 4.61 µM (inactive), the GI50 (RPMI-8226) was 7.33 µM (inactive) and the GI50 (SK-MEL-28) was > 10 µM (inactive). For the same molecule, the GI50 (U-251) was 6.67 µM (inactive) and the GI50 (UO-31) was > 10 µM (inactive).
